Measurements from US10533185B2, “Method for producing polyploidized megakaryocyte and platelets” (The University of Tokyo, priority 2011, dated 2020).

Key:
Type in all cases: cell-based, human
iMKPC-type I cells = test: Cytokine dependence of iMKPC-type I proliferation; settings: SCF 50 ng/ml, TPO 50 ng/ml, 37° C., 14 days, 10T1/2 feeder cells
Procedure: The cytokine dependence of iMKPC-type I was studied by seeding 2×10^5 iMKPC-type I cells on 10T1/2 feeder cells and culturing them for 14 days at 37° C. under the conditions shown in FIG. 1A in the presence of 2 uM of β-estradiol while using the following cytokines: SCF (50 ng/ml), TPO (50 ng/ml), and EPO (6 U/ml). A population in which proliferation was confirmed on Day 4 and Day 11 was counted for cell number, and 2×10^5 cells were replated, while the medium of the other populations was changed. The number of cells was counted on Day 8 and Day 14 and 2×10^5 cells were replated. At the same time, on Day 8, some of the cells were analyzed with a flow cytometer after staining with a CD41 antibody, a CD42b antibody, and a GPA antibody.

iMKPC-type II cells [1] = test: Cytokine dependence and surface markers of iMKPC-type II; settings: for proliferation of iMKPC-type II cells: SCF 50 ng/ml, TPO 50 ng/ml, 39° C., 21 days, Dox 0.5 μg/ml
Procedure: On 10T1/2 feeder cells, 2×10^5 iMKPC-type II cells were seeded, followed by culturing in the presence of 0.5 μg/ml of Dox at 39° C. for 21 days under the conditions of cytokines, that is, SCF (50 ng/ml), TPO (50 ng/ml), and EPO (6 U/ml).
On Day 21 after addition of cytokine, the cells were analyzed with a flow cytometer after staining with a CD41 antibody, a CD42b body, and a GPA antibody.

[2] = test system: megakaryocytes before polyploidization derived from ES cells; test: Ploidy assay: FACS after Hoechst and anti-CD41a staining; settings: for number of cells with 8N or greater: 10 μg/ml
Procedure: After introduction of MYC and MBI1 genes, the resulting megakaryocytes (about 10^5) were cultured for about 30 days in the absence of doxycycline and presence of estradiol under the culturing conditions of 37° C. and presence of 5% CO2 to proliferate them to about 10^11. Culturing was continued further while changing the condition to the presence of doxycycline and absence of estradiol in order to suppress the expression of the MYC gene and the BMI1 gene in the thus proliferated megakaryocytic cell line and adding an ROCK inhibitor (Y27632; product of Wako Pure Chemicals) to the culture medium to give a concentration of 10 μM in order to determine the influence of Y27632 on polyploidization. On Day 7 after culturing was started while adding Y27632 to the culture medium, the degree of polyploidization was studied using FACS (FIG. 5).
The degree of polyploidization was studied (ploidy assay) by suppressing expression of MYC/BMI1 in the presence of 10 μM of Y27632 while inducing […] of BCL-XL, and culturing the resulting cells for 7 days.
Influence on polyploidization was studied by further treating the cells, which was subjected to the treatment of 2-7-4, with valproic acid. After suppression of expression of MYC/BMI1, forced expression of BCL-XL, treatment with the ROCK inhibitor (10 μM), and suppression of expression of p53, valproic acid (final concentration: 0.5 mM) was added to the medium and culturing was conducted at 39° C. for 7 days.
After suppression of expression of MYC/BMI1, forced expression of BCL-XL, and treatment with blebbistatin (10 μg/ml), the resulting cells were cultured at 39° C. for 7 days.
(§1) Next, the degree of polyploidization when the blebbistatin treatment was used in combination with the other treatments was studied. The cells were subjected to blebbistatin treatment in addition to the above-mentioned treatments in Section 2-7-5 and influence of them on polyploidization was studied. After suppression of expression of MYC/BMI1, forced expression of BCL-XL, treatment with a ROCK inhibitor (10 μM), suppression of expression of p53, and treatment with valproic acid (0.5 mM), treatment with blebbistatin (10 μg/ml) was conducted and then, the resulting cells were cultured at 39° C. for 7 days. […] Induction to mature megakaryocytes was therefore confirmed (lower graph in FIG. 13).

iMKPC-type II cells [3] = test: Microscopic observation of polyploidization of iMKPC-type II; settings: 5 μg/ml; c-MYC and BMI1 off, BCL-XL forced, p53 knocked down
Text: It was observed that by turning off the expression of c-MYC and BMI1, forcing expression of BCL-XL, and knocking down the p53 gene, the cells become increasingly polyploidized.

megakaryocytes (CD41a+) = test: Growth curve and micrographs of cells treated with blebbistatin plus the other treatments; settings: 10 μg/ml with the other treatments, after culturing for 7 days
Procedure: as §1

iMKPC-type II cells [4] = test: Platelet production from iMKPC-type II cells: flow cytometry for CD41/CD42b; settings: 5 μM, 37° C., 3 days, with/without feeder cells and serum
Procedure: A platelet production efficiency was measured by using the following conditions in combination as shown in FIG. 17: use/non-use of feeder cells, use/non-use of Conditioned Medium, use of serum medium/use of serum-free medium, and administration/non-administration of blebbistatin.
Conditioned Medium was prepared by seeding 8×10^5 MMC-treated 10T1/2 cells on a 10-cm dish subjected to gelatin coating, changing the medium with 10 ml of a differentiation medium (EBM) containing SCF (50 ng/ml) and TPO (50 ng/ml) and further containing 15% serum or not containing a serum on the next day (after adhesion of cells), recovering the medium and adding 10 ml of a new medium (containing SCF and TPO) 24 hours later, pooling three-day's Conditioned Medium, and filtering the medium through a 0.22-μm filter to remove the 10T1/2 cells. When the resulting medium was used for tests, SCF and TPO were added newly. […]
The platelets contained in the supernatant of the medium were analyzed with a flow cytometer after staining with an antibody CD41 and an antibody CD42b. […]
Comparison in the expression level of CD42b in CD41-positive platelets in each population (a ratio of average fluorescence intensity of each population to average fluorescence intensity of normal condition) is shown in FIG. 18. […]

Molecule: SCF: cytokine added to the culture medium (50 ng/ml)
- proliferation of iMKPC-type I cells (iMKPC-type I cells): strongly depended on SCF
- proliferation of iMKPC-type II cells (iMKPC-type II cells [1]): SCF had no influence on proliferation

Molecule: TPO: cytokine added to the culture medium (50 ng/ml)
- proliferation of iMKPC-type I cells (iMKPC-type I cells): TPO had no influence on their proliferation
- expression of CD41a and CD42b (iMKPC-type II cells [1]; Day 21 after addition of cytokine, compared with the other populations): higher expression in CD41a and CD42b
- proliferation of iMKPC-type II cells (iMKPC-type II cells [1]): proliferation is promoted further

Molecule: Cc1ccc2c(c1)C(=O)C1(O)CCN(c3ccccc3)C1=N2 (centres unmarked) [blebbistatin]
- number of cells with 8N or greater ([2]; 39° C., 7 days, MYC/BMI1 suppressed, BCL-XL forced, ROCK inhibitor 10 μM, p53 suppressed, valproic acid 0.5 mM, vs control cells): greater
- number of cells with 8N or greater ([2]; 39° C., 7 days, MYC/BMI1 suppressed, BCL-XL forced, vs cells without blebbistatin): greater
- polyploidization by microscopic observation (iMKPC-type II cells [3]): polyploidized further
- cell morphology (cytoplasm) (megakaryocytes (CD41a+)): hypertrophy of cytoplasm was observed
- proliferation capacity (megakaryocytes (CD41a+)): slight deterioration in proliferation capacity
- expression level of CD42b in CD41-positive platelets (ratio of average fluorescence intensity to normal condition) (iMKPC-type II cells [4]): Influence of blebbistatin was not found
- platelet production amount (ratio of number of CD41+ CD42b+ platelets to normal condition) (iMKPC-type II cells [4]): No significant difference

Molecule: C[C@@H](N)[C@H]1CC[C@H](C(=O)Nc2ccncc2)CC1.Cl.Cl.O (relative stereo) [Y27632, (R)-(+)-trans-N-(4-pyridyl)-4-(1-aminoethyl)-cyclohexane carboxamide.2HCl.H2O]
- number of cells with 4N (degree of polyploidization) ([2]; 10 μM, Day 7, MYC/BMI1 expression suppressed, compared with cells without inhibitor (vehicle)): increase in the number of cells with 4N

Molecule: CCCC(CCC)C(=O)O [valproic acid]
- degree of polyploidization ([2]; 0.5 mM, 39° C., 7 days, MYC/BMI1 suppressed, BCL-XL forced, ROCK inhibitor 10 μM, p53 suppressed, vs untreated control cells): promoted polyploidization
